This is an account of results in US9371319B2, “Pyrrolopyridineamino derivatives as MPS1 inhibitors” (priority 2011, dated 2016).

For this assay, the target named is T1, full length MPS1 (Homo sapiens, UniProt P33981).
T1 sequence (P33981 1-857): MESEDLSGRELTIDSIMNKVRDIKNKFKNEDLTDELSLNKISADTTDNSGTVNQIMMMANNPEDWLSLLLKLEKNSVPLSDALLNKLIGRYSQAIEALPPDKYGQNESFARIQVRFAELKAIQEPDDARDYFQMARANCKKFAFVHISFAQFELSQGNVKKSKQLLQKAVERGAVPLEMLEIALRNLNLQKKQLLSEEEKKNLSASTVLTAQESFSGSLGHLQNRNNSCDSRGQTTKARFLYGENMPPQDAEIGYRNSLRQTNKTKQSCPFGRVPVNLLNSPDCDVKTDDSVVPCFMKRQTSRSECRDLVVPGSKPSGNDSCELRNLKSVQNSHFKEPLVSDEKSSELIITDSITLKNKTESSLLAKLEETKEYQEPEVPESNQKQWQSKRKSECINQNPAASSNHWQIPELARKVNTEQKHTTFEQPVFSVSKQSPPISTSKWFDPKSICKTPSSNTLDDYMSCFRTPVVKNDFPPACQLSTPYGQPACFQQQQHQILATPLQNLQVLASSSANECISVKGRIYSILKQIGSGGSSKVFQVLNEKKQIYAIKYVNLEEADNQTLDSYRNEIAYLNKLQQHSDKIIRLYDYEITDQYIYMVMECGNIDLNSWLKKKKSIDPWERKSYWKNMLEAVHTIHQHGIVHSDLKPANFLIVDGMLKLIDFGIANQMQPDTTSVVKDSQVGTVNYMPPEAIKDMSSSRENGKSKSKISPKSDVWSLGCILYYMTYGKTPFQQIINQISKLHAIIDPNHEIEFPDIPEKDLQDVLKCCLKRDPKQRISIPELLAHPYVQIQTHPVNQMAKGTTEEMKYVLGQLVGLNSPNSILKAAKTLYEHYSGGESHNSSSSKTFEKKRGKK
Description: biochemical. The method, then:
Measurement of Inhibition of MPS1 Kinase
(5 μM), ATP (10 μM), either DMSO (1% v/v) or the test compound (in the range 0.25 nM-100 μM in 1% DMSO) and assay buffer (50 mM HEPES (pH 7.0), 0.02% NaN3, 0.01% BSA, 0.1 mM Orthovandate, […], 1 μM DTT, Roche protease inhibitor). The reaction was carried out for 60 min at room temperature and stopped by the addition of buffer (10 μl) containing 20 mM EDTA, 0.05% (v/v) Brij-35, in 0.1M HEPES-buffered saline (Free acid, Sigma, UK). The plate was read on a Caliper EZ reader II (Caliper Life Sciences).
The % inhibition of the compounds is calculated relative to the means of selected control wells. […] The % inhibitions at each concentration are then fitted to a 4 parameter logistic fit: y=(a+((b−a)/(1+((c/x^d)))) where a=asym min, b=asym max, c=IC50 and d=hill coefficient

`Cn1cc(-c2cc3cnc(Nc4ccc(-c5cncn5C)cc4Cl)cc3n2C(=O)OC2CCCC2)cn1` [Example 78] registered an IC50 of 11 nM.

`CN(C)C(=O)c1cc(Cl)c(Nc2cc3c(cn2)cc(-c2cnn(C)c2)n3C(=O)OC(C)(C)C)c(Cl)c1` [Example 13] registered an IC50 of 20 nM.

`COc1cc(CN(C)C(=O)OC(C)(C)C)ccc1Nc1cc2c(cn1)cc(-c1cnn(C)c1)n2C(=O)OC(C)(C)C` [Example 34] gave an IC50 of 111 nM.

For `Cc1ncc(-c2ccc(Nc3cc4c(cn3)cc(-c3cnn(C)c3)n4C(=O)OC3CCC3)c(Cl)c2)n1C` [Example 85], it took 4 nM to reach half-maximal inhibition (IC50).

In turn, `Cn1cncc1-c1ccc(Nc2cc3[nH]c(-c4cnco4)cc3cn2)c(Cl)c1` [Example 185, N-(2-Chloro-4-(1-methyl-1H-imidazol-5-yl)phenyl)-2-(oxazol-5-yl)-1H-pyrrolo[3,2-c]pyridin-6-amine] registered an IC50 of 5 nM.

As to `COc1cc(-c2ccc(Nc3cc4c(cn3)cc(-c3cnn(C)c3)n4C(=O)OC(C)(C)C)c(Cl)c2)ccn1` [Example 46], half-maximal inhibition (IC50) required 75 nM.

`CS(=O)(=O)c1ccc(Nc2cc3[nH]c(-c4cn[nH]c4)cc3cn2)c(Cl)c1` [Example 154, N-(2-chloro-4-(methylsulfonyl)phenyl)-2-(1H-pyrazol-4-yl)-1H-pyrrolo[3,2-c]pyridin-6-amine] came in with an IC50 of 2 nM.

Take `COc1cc(-c2ccc(Nc3cc4[nH]c(-c5cnn(C)c5)cc4cn3)c(Cl)c2)ccn1` [Example 151, N-(2-Chloro-4-(2-methoxypyridin-4-yl)phenyl)-2-(1-methyl-1H-pyrazol-4-yl)-1H-pyrrolo[3,2-c]pyridin-6-amine]: the IC50 amounted to 182 nM.

`COc1cc(CN2CCCC2)ccc1Nc1cc2c(cn1)cc(-c1cnn(C)c1)n2C(=O)OC(C)(C)C` [Example 33]: the IC50 is 16 nM.

With `COc1cc(C(=O)N2CCOCC2)ccc1Nc1cc2c(cn1)cc(-c1cnn(C)c1)n2C(=O)OC(C)(C)C` [Example 10], the IC50 amounted to 5 nM.

Turning to `COc1cc(C(F)(F)F)ccc1Nc1cc2[nH]c(-c3cnn(C)c3)cc2cn1` [Example 156, N-(2-Methoxy-4-(trifluoromethyl)phenyl)-2-(1-methyl-1H-pyrazol-4-yl)-1H-pyrrolo[3,2-c]pyridin-6-amine], the midpoint of inhibition, the IC50, lay at 164 nM.

In turn, `COc1cc(-c2cnc(C)n2C)ccc1Nc1cc2c(cn1)cc(-c1cnn(C)c1)n2C(=O)OC(C)C` [Example 68] came in with an IC50 of 2 nM.

`Cn1cc(-c2cc3cnc(Nc4ccc(C(=O)N5CCCC5)cc4Cl)cc3[nH]2)cn1` [Example 145, (3-Chloro-4-(2-(1-methyl-1H-pyrazol-4-yl)-1H-pyrrolo[3,2-c]pyridin-6-ylamino)phenyl)(pyrrolidin-1-yl)methanone] came in with an IC50 of 12 nM.

As for `CN(C)C(=O)c1ccc(Nc2cc3c(cn2)c(Cl)c(-c2cnn(C)c2)n3C(=O)OC(C)(C)C)c(Cl)c1` [Example 65], inhibition was half-maximal at 127 nM (IC50).

With `CC(C)OC(=O)n1c(-c2cnn(C)c2)cc2cnc(Nc3cc(-c4cnn(C)c4)ccc3Cl)cc21` [Example 89], it took 287 nM to reach half-maximal inhibition (IC50).

In turn, `CS(=O)(=O)n1c(-c2cn[nH]c2)cc2cnc(Nc3ccc(F)cc3)cc21` [Example 187, N-(4-fluorophenyl)-1-(methylsulfonyl)-2-(1H-pyrazol-4-yl)-1H-pyrrolo[3,2-c]pyridin-6-amine] registered an IC50 of 6430 nM.

As for `Fc1ccc(Nc2cc3[nH]c(-c4cn[nH]c4)cc3cn2)nc1` [Example 189, N-(5-fluoropyridin-2-yl)-2-(1H-pyrazol-4-yl)-1H-pyrrolo[3,2-c]pyridin-6-amine], the IC50 was found to be 159 nM.

On to `Cc1nn(C)cc1-c1ccc(Nc2cc3c(cn2)cc(-c2cnn(C)c2)n3C(=O)OC(C)(C)C)c(Cl)c1` [Example 21], for which the IC50 came out at 7 nM.

`CN1CCN(C(=O)c2ccc(Nc3cc4c(cn3)cc(-c3cnn(C)c3)n4C(=O)OC(C)(C)C)c(Cl)c2)CC1` [Example 41] returned an IC50 of 8 nM.

On to `COc1cc(-c2cnn(C)c2)ccc1Nc1cc2c(cn1)cc(-c1cnn(C)c1)n2C(=O)OC(C)C` [Example 102], for which 7 nM corresponded to half-maximal inhibition (IC50).
